Experimental data: patent US11110195B2, “Esculentin 1a derivatives and uses thereof” (University of Houston System, priority 2013, dated 2021)
Where two headings read alike, the source gives them in different places. Non-standard residues stand in square brackets, D forms with d. Residues, ends and D or L forms follow the SMILES beside them.

Key:
[1] = system: human telomerase immortalized corneal epithelial cells; experiment: in vitro
Method: Human corneal epithelial cells were incubated with varying concentrations of Esc-1a(1-21)NH2 for 24 hrs then cytotoxicity determined by MTT assay. Data are the mean of 3 independent experiments.
To determine the toxicity of Esc-1a(1-21)NH2 to human telomerase immortalized corneal epithelial cells, the following experiment was performed. The MTT (3-(4,5-Dimethylthiazole-2-yl)-2,5-diphenyltetrazolium bromide) assay measures the activity of enzymes that reduce the tetrazolium blue dye to a formazan salt. Mitochondrial reductase enzymes will reduce MTT to formazan, which can be visualized by colorimetric reaction the absorbance of which can be quantified.
MTT assay was performed on human telomerase immortalized corneal epithelial cells treated with different concentrations of the peptide for 24 hrs. The test was performed in triplicate or quadruplicate wells with concentrations of the peptide of up to 100 μM using the following protocol. On day 1, plated the telomerase immortalized epithelial cells at 10,000 cells/well in a 96 well plate. Incubated the plate at 37° C. for […] to allow the cells to attach to the plate and spread. On day 2, incubated the cells in serum free media for at least 6 hrs prior to peptide treatment. On day 3, stimulated the cells with 100, 50, 25, 10, 5, 1, 0.5 and 0.1 μM Esc-1a(1-21)NH2 in quadruplicate for 24 hrs. On day 4, added 50 μl of 0.02% Benzalkonium chloride into 4 wells as a positive control for 15 minutes. Added 50 μl of serum free media into all the other wells (total volume 100 μl). Added 10 μl of MTT stock solution into each of the well. Incubated at 37° C. for 3 hours. At the end of 3 hours purple crystals were visible under the microscope. Added 100 μl of stop solution into each well using a multichannel pipette. Pipetted up and down to dissolve all the crystals. Gently popped the bubbles using a 10 μl tip. Read plate using plate reader at 590 nm abs and 635 nm reference. Subtracted reference OD value (635) from 590 OD value and plotted graph.

[2] = system: A549 lung epithelial cells; experiment: Wound healing assay, A549 lung epithelial cells; format: cell-based, human; details: A549 monolayer
Method: The percentage of cell-covered area at each time point is reported on the y-axis. Control (Ctrl) represents cells not treated with the peptides. All data are the mean of at least three independent experiments ±SEM. […] Both peptides were able to stimulate the closure of the gap produced in the monolayer of A549 cells, with the optimal concentration allowing the almost complete coverage of the wound field equal to 10 μM (for the wild type peptide, FIG. 13A) or 4 μM (for the diastereomer, FIG. 13B) within approximately 24 hours or 20 hours, respectively.
As shown in FIGS. 13A-13B, Esc-1a(1-21)NH2 and its diastereomer both stimulated wound closure although at concentrations much higher than were required to induce a similar effect in human corneal epithelial cells. This may reflect cell specific differences.

in vitro = details: for Peptide Amount (%): 24 h, 37° C.; for remaining at 5 h, 0.575 mM / remaining at 24 h, 0.575 mM: human
Method: A total of 125 μl of a 0.92 mM solution of each peptide was incubated at 37° C. with 20 μl and 60 μl human serum. Samples were collected after 5 h and 24 h of incubation, precipitated with 200 μl methanol, and centrifuged for 2 min at 10,000 g.
The crude solution was then analyzed by high-performance liquid chromatography (HPLC) and mass spectrometry. HPLC was performed with a Vydac C18 column, and the crude solution was diluted 5 times with 0.1% trifluoroacetic acid before injection and monitored at 280 nm.

Raw 264.7 macrophages = experiment: MTT viability assay, Raw 264.7 macrophages; details: 256 μM (highest concentration), 24 h
Method: (§1) Cell viability is expressed as percentage with respect to the control (cells not treated with the peptides). Data points represent the mean of triplicate samples ±SEM. […] The levels of statistical significance between the two peptides are indicated as follows: **p<0.01, ***p<0.001.
(§2) Cells were plated in wells of a microtiter plate, at 4×10^4 cells/well in DMEM supplemented with 2 mM glutamine and 2% FBS (for A549 cells) or DMEM containing 2 mM glutamine, non-essential amino acids (NEAA), sodium pyruvate and 2% FBS (for Raw 264.7 macrophages). After overnight incubation at 37° C. in a 5% CO2 atmosphere, the medium was replaced with 100 μl fresh serum-free medium supplemented with the peptides at different concentrations. After 24 h of peptide treatment, cell viability was determined by a MTT assay.

[3] = system: P. aeruginosa ATCC 27853 biofilm; details: 2 hours treatment
Method: Data points are the mean±SEM of three independent experiments. The levels of statistically significant differences between the two peptides are indicated as follows *P<0.05, **P<0.01, ***P<0.001
The reference strain and the clinical isolates were grown at 37° C. in Luria-Bertani broth (LB) to mid-log phase (optical density of 0.8 at 590 nm). With the help of tweezers, silicone hydrogel narafilcon A soft CL (1-Day ACUVUE TruEye) were removed from the manufacturer's containers, and washed thrice in phosphate buffered saline (PBS). The lenses were then immersed into wells of a 24-multiwell plate, each well containing 1 mL of bacterial inoculum in 1/10 LB at a concentration of 5×10^4 colony-forming units (CFU)/mL. Noteworthy, the number of bacteria isolated from CL storage cases has been reported to range from 1 to 6×10^4 CFU/case (2, 10). Therefore, in order to reproduce a more realistic level of bacteria to which CLs can be exposed, an inoculum size of 5×10^4 CFU/mL was used for biofilm formation.
The plate was then incubated in a humidified incubator at 37° C. at 125 rpm to allow biofilm formation on the surface of both lens sides. After 20 hours of incubation, each lens was washed thrice with PBS to remove any non-adherent planktonic cells.
The lenses were then transferred into wells of a new 24-multiwell plate, each well containing serial dilutions of Esc-1a(1-21)NH2 and Esc-1a(1-21)-1cNH2 in PBS. For […] controls, the lenses were immersed in sterile PBS. The new plate was then incubated at 37° C. for 2 hours with gentle shaking (125 rpm). After peptide treatment, each lens was washed thrice in PBS and transferred into wells of another 24-multiwell plate, each well containing 350 μL of 0.5 mg/mL of 3-(4,5-dimethylthiazol-2-yl)-2,5-diphenyltetrazolium bromide (MTT, from Sigma Aldrich, Milan, Italy) in Hank's solution (136 mM NaCl; 0.34 mM Na2HPO4; 0.44 mMKH2PO4; 5.4 mM KCl; 4.1 mM NaHCO3 pH 7.2, supplemented with 5.5 mM D-glucose) as previously reported (8). The killing of biofilms was determined as a function of the inhibition of MTT reduction to insoluble formazan crystals by bacterial reductases. The plate was incubated again for 2 hours (125 rpm) at 37° C. Formazan crystals were solubilized by the addition of acidified isopropanol. During overnight incubation at room temperature the resulting purple color was absorbed by the lens. Afterward, each lens was soaked in absolute ethanol (500 μL in each well) to decolor it. Aliquots of 100 μL were finally transferred to the wells of a 96-multiwell plate and absorbance was measured at 590 nm using a microplate reader (Infine M 200, Tecan). Untreated bacterial cells in PBS were the control. Percentage of killing was calculated according to the formula: [1−(Abs of treated samples−Abs of blank/Abs of control samples-Abs of blank)][…], where the blank was the solvent PBS.

P. aeruginosa ATCC 27853 = details: soluble free form, 1 μM, within 20 minutes in PBS
[4] = MTT viability assay, A549 cells; details: human
Method: as §1, §2

HaCaT cells = experiment: Wound healing assay, HaCaT cells; format: cell-based, human; details: HaCaT monolayer
Method: The percentage of cell-covered area at each time point is reported on the y-axis. Control (Ctrl) represents cells not treated with the peptide. All data are the mean of at least three independent experiments ±SEM. […] The optimal concentration allowing gap closure was 0.25 μM.
The experimental procedure is similar to that described in Example 6 with the following two differences: (i) 40,000 cells suspended in DMEM supplemented with 4 mM glutamine and 10% FBS were seeded on each side of the ibidi culture inserts instead of 70,000 cells in KGM-2g as for corneal epithelial cells; (ii) serum-free medium was used in the wound healing assay instead of medium supplemented with 5% FBS as for corneal epithelial cells. […] Overall, the experiments indicate that Esc-1a(1-21)NH2 can stimulate wound closure in different types of mammalian cells but this is with a different kinetic or optimal concentration and thus a stereospecific mechanism involving a direct/indirect activation of different signalling transduction cascades (depending on the selected cell type) likely subtends such events.

HaCaT keratinocytes = system: HaCaT keratinocytes
Excerpt: Cell viability is expressed as percentage with respect to the control (cells not treated with the peptide). Data points represent the mean of triplicate samples ±SEM.

benzalkonium chloride [BAC, reference compound]
cytotoxicity ([1]; positive control (FIG. 4)): ~100% | viability ([1]; positive control, 0.02% for 15 minutes): 6.2%

CC[C@H](C)[C@H](NC(=O)CN)C(=O)N[C@@H](Cc1ccccc1)C(=O)N[C@@H](CO)C(=O)N[C@@H](CCCCN)C(=O)N[C@@H](CC(C)C)C(=O)N[C@@H](C)C(=O)NCC(=O)N[C@@H](CCCCN)C(=O)N[C@@H](CCCCN)C(=O)N[C@H](C(=O)N[C@@H](CCCCN)C(=O)N[C@@H](CC(N)=O)C(=O)N[C@H](CC(C)C)C(=O)N[C@@H](CC(C)C)C(=O)N[C@H](C(=O)N[C@H](CO)C(=O)NCC(=O)N[C@@H](CC(C)C)C(=O)N[C@@H](CCCCN)C(=O)NCC(N)=O)[C@@H](C)CC)[C@@H](C)CC [Esc-1a(1-21)-1cNH2] (H-GIFSKLAGKKIKN[dL]LI[dS]GLKG-NH2; N-terminus assumed)
optimal concentration allowing almost complete coverage of the wound field [2]: 4 µM | time to almost complete coverage of the wound field ([2]; at optimal concentration): ~20 h | Peptide Amount (%) (in vitro; 10% human fresh serum): 45.61% | Peptide Amount (%) (in vitro; 30% human fresh serum): 25.46% | remaining at 5 h, 0.575 mM (in vitro; 10% human fresh serum): 63.3% | remaining at 24 h, 0.575 mM (in vitro; 10% human fresh serum): 45.6% | remaining at 5 h, 0.575 mM (in vitro; 30% human fresh serum): 30.1% | remaining at 24 h, 0.575 mM (in vitro; 30% human fresh serum): 25.5% | decrease in the percentage of metabolically-active cells (Raw 264.7 macrophages): ~20% | biofilm killing ([3]; 4 μM): ~35% | biofilm death ([3]; 16 μM): ~80% | biofilm killing ([3]; 32 μM): ~90% | killing (P. aeruginosa ATCC 27853): ~90% | CC50 at 24 h [4]: > 256 µM

CC[C@@H](C)[C@@H](NC(=O)CN)C(=O)N[C@H](Cc1ccccc1)C(=O)N[C@H](CO)C(=O)N[C@H](CCCCN)C(=O)N[C@H](CC(C)C)C(=O)N[C@H](C)C(=O)NCC(=O)N[C@H](CCCCN)C(=O)N[C@H](CCCCN)C(=O)N[C@@H](C(=O)N[C@H](CCCCN)C(=O)N[C@H](CC(N)=O)C(=O)N[C@H](CC(C)C)C(=O)N[C@H](CC(C)C)C(=O)N[C@@H](C(=O)N[C@H](CO)C(=O)NCC(=O)N[C@H](CC(C)C)C(=O)N[C@H](CCCCN)C(=O)NCC(N)=O)[C@H](C)CC)[C@H](C)CC [all D Esc-1a(1-21)NH2] (H-G[dI][dF][dS][dK][dL][dA]G[dK][dK][dI][dK][dN][dL][dL][dI][dS]G[dL][dK]G-NH2; N-terminus assumed)
cell-covered area vs untreated control cells (HaCaT cells): no statistically significant difference | reduction in the number of metabolically-active keratinocytes (HaCaT keratinocytes; 2 h treatment, 1-64 μM): did not show any remarkable reduction | toxicity to HaCaT keratinocytes (HaCaT keratinocytes; higher concentration tested, 24 h): did not show toxicity
